Experimental data as given in patent US12564609B2, “Hematopoietic stem cell engraftment with a combination of agents” (The Board of Trustees of the Leland Stanford Junior …, priority 2020, dated 2026).

Tested on: donor HSC engraftment
Test: Allogeneic (minor MHC-mismatched) transplantation, donor chimerism in peripheral blood
Type: in vivo, BALB.B mice
Method: A. Schematic of allogeneic transplantation protocol. BALB.B mice (H-2^b, Thy1.2, CD45.2) were recipients for B6 donors (H-2b, Thy1.1, CD45.1); ACK2 was injected 10 days prior transplantation, AZA was administered days −5 through −1 in dose 2.5 or 5 mg/kg/d, anti-CD4/CD8 were injected in dose 100 μg at days −2, −1 and at the day of transplant (day 0); recipients received 15×10^6 WBM cells or 5×10^4 LSK at d0; chimerism analysis was assessed by flow cytometry using CD45 marker to distinguish between donor and recipient total, myeloid (Gr1^+Mac1^+), B-cells (CD19^+CD3^−) and T-cells (CD19^−CD3^+). B. Multilineage donor-derived chimerism after conditioning with ACK2, AZA 2.5 mg/kg, AZA 5 mg/kg or their combination and transplantation of 15×10^6WBM cells. Chimerism levels from peripheral blood are shown at 4, 14 and 26 weeks post-HCT. Data represent mean±SD (n=4 per group). C. Multilineage donor-derived chimerism in peripheral blood at 4, 14 and 26 weeks following conditioning with single agent ACK2, single agent AZA 5 mg/kg/d or their combination and transplantation of 5×10^4 Lin^− Sca1^+c-Kit^+ cells (LSK). Data represent mean±SD (n=3-5 per group) between the donor and recipient.
Mice. […]
Bone marrow cell preparation and HSC isolation for transplantation experiments. […] Cells were filtered through 70-μm filter, lysed in ACK lysis buffer and counted on Invitrogen Countess. […]

For `Nc1ncn([C@@H]2O[C@H](CO)[C@@H](O)[C@H]2O)c(=O)n1` [AZA, 5-Azacytidine], the donor engraftment (AZA 5 mg/kg/d, anti-CD4/CD8, 15×10^6 allogeneic WBM cells) was “successful donor engraftment was achieved” and the “total donor chimerism over time” value (AZA alone group, 15×10^6 allogeneic WBM cells) was “noted to decrease”.
